For data set [1], the system named is Plasmodium falciparum FCR-3. The experiment in a line: In vitro antiplasmodial drug assay ([3H]-hypoxanthine incorporation). It is filed as cell-based. On the procedure:
The drugs dissolved in dimethylsulfoxide (DMSO) were added at final concentrations ranging from 200 to 0.1 μM. All experiments were performed in triplicate. The final DMSO concentration was never greater than 0.1%. […].
% Inhibition of the incorporation of labeled hypoxanthine=100−(P/T*100),
P: c.p.m. for every concentration, and
T: negative control (red blood cells without drug).

In the next data set the test system is VERO cells. The data set can be described thus: Toxicity assay, MTT viability on VERO cells. It is filed as cell-based, African Green Monkey. Conditions: VERO cells survival, 48 hours, MTT; average of three independent determinations; read-out: TC50 (the source's name). How it is done:
(§1) Drugs were added at different concentrations and the cells were cultured for 48 hours. The effect was determined using the 3-(4,5-dimethylthiazol-2-yl)-2,5-diphenyltetrazolium bromide (MTT) viability assay. Four hours after the addition of MTT, 100 μl of lysis buffer (50% isopropanol, 30% water, 20% SDS) were added and the cells were incubated at room temperature for 15 min under agitation. Finally, optical density was read at 590 nm with a 96-well scanner (Bio-Rad). All experiments were performed in triplicate.

The subject of another data set is P. berghei ANKA. The experiment in a line: In vivo antiplasmodial drug assay (4-day suppressive test) in murine model. Particulars: Swiss male mice, 4 consecutive days, read on day 4. On the procedure: The antiplasmodial activity of Compound 7 was tested in vivo in a murine model. The antiplasmodial activity of a Compound A representative of the prior art was also tested: Studies were conducted according to the French and Colombian guidelines on laboratory animal use and care (No 2001-464 and No 008430, respectively). The classical 4-day suppressive test was carried out (W. Peters, Chemotherapy and drug resistance in malaria, Academic Press: London, 1970). Swiss male mice weighing 20±2 g, were infected with 10^7 P. berghei ANKA parasitized cells (day 0). […] […] Survival of the mice was checked daily and the percentage of parasitized erythrocytes was determined on day 4, by Giemsa-stained thin blood smears made from peripheral blood. The percentage of inhibition of parasitaemia was calculated.

A short description of data set [2]: Toxicity assay, MTT viability on VERO cells. It counts as cell-based, African Green Monkey. Conditions: African green monkey. How it is done: as §1
A further data set relates to mice. The experiment in a line: Cytotoxicity (toxicity) after administration in a malaria murine model. Particulars: 50 mg·kg^-1, malaria murine model. It is filed as in vivo, mouse. On the procedure:
The cytotoxicity of Compound 7 was compared to the cytotoxicity of Compound 31 of the publication of Silvia Perez-Silanes et al., Molecules 2009, 14, 4120-4135, the compounds only differentiated by the nature of the Ar group (4-fluoro-1-phenyl group vs benzo[b]thiophenyl).
Both compounds were administered at 50 mg·kg^−1 in a malaria murine model.

[3] abbreviates: chloroquine-resistant FCR-3 strain, 50% of Plasmodium falciparum growth, average of three independent determinations, read-out: IC50.
Where [4] appears, read: FCR3, chloroquine-resistant FCR-3 strain, 50% of Plasmodium falciparum growth, average of three independent determinations, read-out: IC50.

Where two headings read alike, the source gives them in different places.

A word on the IC50: it is the concentration that inhibits the measured activity by half. Consider “3-[4-(4-fluorophenyl)-3,6-dihydropyridin-1(2H)-yl]-1-(4-(trifluoromethyl phenyl)propan-1-ol) [Compound 4]”, for which the IC50 in data set [1] (setting [3]) was 5.6 µM. In addition, in the data set on VERO cells, the CC50 is over 100 µM.
`CCN(CC)CCCC(C)Nc1ccnc2cc(Cl)ccc12` (stereo not drawn) [CQ, chloroquine, reference compound] gave an IC50 in data set [1] (Plasmodium falciparum, FCR3) of 0.13 µM. The “percentage of inhibition of parasitaemia” value in the data set with P. berghei ANKA (3 mg/kg/day oral) turned out to be 65%.
The melting point is the temperature, or range, at which the solid turns liquid. The compound `OC(CCN1CC=C(c2ccc(F)cc2)CC1)c1ccc2ccccc2c1` (stereo not drawn) [Compound 3, 3-[4-(4-fluorophenyl)-3,6-dihydropyridin-1(2H)-yl]-1-(naphthalen-2-yl)propan-1-ol] displayed a melting point of 127 to 129 °C. The IC50 in data set [1] (setting [4]) amounted to 36.1 µM. In addition, the CC50 at 48 h in data set [2] is over 100 µM.
Take `O=[N+]([O-])c1ccc(N2CCC(NCCC(O)c3ccc(F)c4ccccc34)CC2)c(C(F)(F)F)c1` (stereo not drawn) [Compound 5, 1-(4-fluoronaphthalen-1-yl)-3-((1-(4-nitro-2-(trifluoromethyl)phenyl)piperidin-4-yl)amino)propan-1-ol]: the IC50 in data set [1] (setting [4]) is 0.15 µM. Also, the CC50 at 48 h in data set [2] (VERO cells (kidney epithelial cells), VERO cells survival, 48 hours, MTT, average of three independent determinations, read-out: TC50) stood at 5.5 µM.
With `OC(CCN1CC=C(c2ccc(F)cc2)CC1)c1ccc(F)c2ccccc12` (stereo not drawn) [Compound 6, 1-(4-fluoronaphthalen-1-yl)-3-[4-(4-fluorophenyl)-3,6-dihydropyridin-1(2H)-yl]propan-1-ol], the IC50 in data set [1] (setting [4]) was found to be 0.4 µM. The CC50 at 48 h in data set [2] was over 50 µM.
Take `Cl.O=[N+]([O-])c1ccc(N2CCC(NCCC(O)c3ccc(F)cc3)CC2)c(C(F)(F)F)c1` (stereo not drawn) [Compound 7]: the IC50 in data set [1] (setting [3]) stood at 0.48 µM. Moreover, the “percentage of inhibition of parasitaemia” value in the data set with P. berghei ANKA (50 mg/kg/day oral) was found to be 76%. Also, the CC50 in the data set with VERO cells is 30.2 µM. In addition, the cytotoxicity after administration entry in the data set on mice is “No cytotoxicity was detected”.
In the case of `OC(CCN1CC=C(c2ccc(F)cc2)CC1)c1ccc(F)cc1` (stereo not drawn) [Compound 8, 1-(4-fluorophenyl)-3-[4-(4-fluorophenyl)-3,6-dihydropyridin-1 (2H)-yl]propan-1-ol], the melting point lay in the range of 199 to 201 °C. Further, the IC50 in data set [1] (setting [4]) stood at 0.66 µM. This compound gave a CC50 at 48 h in data set [2] of over 100 µM.
